From patent publication US12227500B2, “Substituted pyrrolo[2,3-b]pyridines for suppressing toxic endoplasmic reticulum stress” (THE TRUSTEES OF COLUMBIA UNIVERSITY IN THE CITY OF NEW YORK, priority 2018, dated 2025)
Like-named read-outs stand apart in the source and are kept apart here.

Experiments:
Assay in all cases: Radiolabeled ATP kinase assay, panel of 371 kinases (Table S6)
Format in all cases: biochemical
[1] = target: T1, panel of 371 human kinases (Homo sapiens, UniProt P42680); conditions: TEC; 0.1 μM; 10 μM ATP; read-out: % Enzyme Activity (relative to DMSO controls)
T1 construct: purchased Reaction Biology Corp
Text: (§1) ; FIG. 38C). […]. Further targeted analyses, such as genetic knock-down or knock-out, may be warranted to parse the role of these additional kinases in our model of neurodegeneration.

[2] = target: T2, panel of 371 human kinases (Homo sapiens, UniProt P34947); conditions: GRK5; 0.1 μM; 10 μM ATP; read-out: % Enzyme Activity (relative to DMSO controls)
T2 construct: purchased Reaction Biology Corp
Text: as §1

[3] = target: T3, panel of 371 human kinases (Homo sapiens, UniProt P06493); conditions: 0.1 μM, 10 μM ATP, read-out: % Enzyme Activity (relative to DMSO controls)
T3 construct: purchased Reaction Biology Corp
T3 sequence (P06493 whole entry): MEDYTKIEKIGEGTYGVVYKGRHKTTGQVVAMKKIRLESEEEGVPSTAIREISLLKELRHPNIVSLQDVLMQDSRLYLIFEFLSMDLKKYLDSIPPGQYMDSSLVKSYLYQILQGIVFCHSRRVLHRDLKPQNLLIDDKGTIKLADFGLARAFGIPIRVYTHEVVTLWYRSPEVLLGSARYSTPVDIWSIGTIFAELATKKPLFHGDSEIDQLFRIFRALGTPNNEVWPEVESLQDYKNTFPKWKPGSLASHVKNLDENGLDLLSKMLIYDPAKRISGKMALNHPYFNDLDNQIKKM
Text: as §1

[4] = target: T4, panel of 371 human kinases (Homo sapiens, UniProt Q5TCX8); conditions: MLK4; 0.1 μM; 10 μM ATP; read-out: % Enzyme Activity (relative to DMSO controls)
T4 construct: purchased Reaction Biology Corp
Text: as §1

[5] = target: T5, panel of 371 human kinases (Homo sapiens, UniProt Q9UL54); conditions: TAOK2/TAO1; 0.1 μM; 10 μM ATP; read-out: % Enzyme Activity (relative to DMSO controls)
T5 construct: purchased Reaction Biology Corp
T5 sequence (Q9UL54 whole entry): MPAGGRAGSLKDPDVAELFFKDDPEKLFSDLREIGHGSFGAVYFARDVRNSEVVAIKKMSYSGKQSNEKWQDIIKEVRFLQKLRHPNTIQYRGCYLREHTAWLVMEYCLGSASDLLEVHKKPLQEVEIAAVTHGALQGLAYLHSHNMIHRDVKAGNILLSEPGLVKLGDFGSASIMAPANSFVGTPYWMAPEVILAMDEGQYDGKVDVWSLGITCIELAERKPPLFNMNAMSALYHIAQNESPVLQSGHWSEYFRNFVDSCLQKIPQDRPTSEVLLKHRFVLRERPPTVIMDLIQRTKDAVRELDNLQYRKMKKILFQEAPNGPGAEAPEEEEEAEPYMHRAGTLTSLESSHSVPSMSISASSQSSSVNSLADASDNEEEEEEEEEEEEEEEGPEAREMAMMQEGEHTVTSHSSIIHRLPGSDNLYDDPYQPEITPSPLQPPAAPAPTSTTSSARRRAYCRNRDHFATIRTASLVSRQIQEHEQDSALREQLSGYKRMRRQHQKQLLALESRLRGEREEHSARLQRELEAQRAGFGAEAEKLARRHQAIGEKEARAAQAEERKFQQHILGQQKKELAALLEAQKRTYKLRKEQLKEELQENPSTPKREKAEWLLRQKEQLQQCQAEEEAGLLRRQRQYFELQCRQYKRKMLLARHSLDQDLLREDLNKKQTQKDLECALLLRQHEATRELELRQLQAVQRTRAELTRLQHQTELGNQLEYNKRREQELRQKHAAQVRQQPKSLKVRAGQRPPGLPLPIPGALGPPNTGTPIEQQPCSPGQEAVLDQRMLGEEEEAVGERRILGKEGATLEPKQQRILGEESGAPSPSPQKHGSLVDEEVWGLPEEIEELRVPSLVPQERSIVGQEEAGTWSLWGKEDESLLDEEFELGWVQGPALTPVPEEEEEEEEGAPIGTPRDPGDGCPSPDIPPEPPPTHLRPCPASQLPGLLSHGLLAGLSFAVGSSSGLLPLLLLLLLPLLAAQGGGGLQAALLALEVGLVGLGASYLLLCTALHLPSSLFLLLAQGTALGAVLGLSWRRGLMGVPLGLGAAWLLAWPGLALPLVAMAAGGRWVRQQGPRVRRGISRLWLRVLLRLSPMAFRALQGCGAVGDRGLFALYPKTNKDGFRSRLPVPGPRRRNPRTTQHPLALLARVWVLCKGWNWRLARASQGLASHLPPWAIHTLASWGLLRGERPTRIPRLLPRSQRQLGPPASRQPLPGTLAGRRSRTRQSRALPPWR
Text: as §1

[6] = target: T6, panel of 371 human kinases (Homo sapiens, UniProt Q9UEW8); conditions: STK39/STLK3; 0.1 μM; 10 μM ATP; read-out: % Enzyme Activity (relative to DMSO controls)
T6 construct: purchased Reaction Biology Corp
Text: as §1

[7] = target: T7, panel of 371 human kinases (Homo sapiens, UniProt O75116); conditions: ROCK2; 0.1 μM; 10 μM ATP; read-out: % Enzyme Activity (relative to DMSO controls)
T7 construct: purchased Reaction Biology Corp
T7 sequence (O75116 whole entry): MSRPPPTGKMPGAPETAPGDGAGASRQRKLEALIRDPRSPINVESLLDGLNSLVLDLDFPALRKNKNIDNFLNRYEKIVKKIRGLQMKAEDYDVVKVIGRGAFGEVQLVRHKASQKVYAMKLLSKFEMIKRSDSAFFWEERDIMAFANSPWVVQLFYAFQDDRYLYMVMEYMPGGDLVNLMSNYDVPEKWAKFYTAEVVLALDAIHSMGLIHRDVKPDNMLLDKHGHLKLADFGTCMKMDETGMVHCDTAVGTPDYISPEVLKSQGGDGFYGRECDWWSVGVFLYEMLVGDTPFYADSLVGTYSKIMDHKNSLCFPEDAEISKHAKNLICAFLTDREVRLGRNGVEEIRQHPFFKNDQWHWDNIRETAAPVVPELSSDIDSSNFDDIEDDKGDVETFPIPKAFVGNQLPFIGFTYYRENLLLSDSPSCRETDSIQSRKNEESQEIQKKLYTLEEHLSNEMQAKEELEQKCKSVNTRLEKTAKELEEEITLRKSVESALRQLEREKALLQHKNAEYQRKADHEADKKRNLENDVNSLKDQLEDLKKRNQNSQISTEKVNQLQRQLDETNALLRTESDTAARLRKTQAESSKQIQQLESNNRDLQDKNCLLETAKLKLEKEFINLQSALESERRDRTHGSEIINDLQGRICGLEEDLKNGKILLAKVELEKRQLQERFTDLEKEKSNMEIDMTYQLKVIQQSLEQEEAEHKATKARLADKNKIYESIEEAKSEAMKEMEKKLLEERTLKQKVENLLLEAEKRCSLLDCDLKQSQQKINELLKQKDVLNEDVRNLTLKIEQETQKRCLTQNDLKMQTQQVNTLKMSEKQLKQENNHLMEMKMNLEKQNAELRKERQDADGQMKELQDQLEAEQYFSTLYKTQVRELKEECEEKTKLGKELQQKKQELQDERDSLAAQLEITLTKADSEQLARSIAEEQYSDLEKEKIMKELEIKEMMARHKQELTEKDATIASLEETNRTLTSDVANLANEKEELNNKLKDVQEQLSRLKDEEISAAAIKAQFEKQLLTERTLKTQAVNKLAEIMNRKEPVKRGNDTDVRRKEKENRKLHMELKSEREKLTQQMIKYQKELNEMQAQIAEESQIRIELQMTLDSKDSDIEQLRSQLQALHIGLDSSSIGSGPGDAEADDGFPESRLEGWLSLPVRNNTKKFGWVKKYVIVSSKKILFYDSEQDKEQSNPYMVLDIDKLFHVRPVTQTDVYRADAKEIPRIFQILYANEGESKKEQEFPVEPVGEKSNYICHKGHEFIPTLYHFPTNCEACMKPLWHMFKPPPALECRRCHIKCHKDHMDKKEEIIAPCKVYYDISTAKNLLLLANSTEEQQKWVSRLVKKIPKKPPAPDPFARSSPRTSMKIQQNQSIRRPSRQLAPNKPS
Text: as §1

[8] = target: T8, panel of 371 human kinases (Homo sapiens, UniProt O14578); conditions: STK21/CIT; 0.1 μM; 10 μM ATP; read-out: % Enzyme Activity (relative to DMSO controls)
T8 construct: purchased Reaction Biology Corp
Text: as §1

[9] = target: T9, panel of 371 human kinases (Homo sapiens, UniProt P00533); conditions: EGFR; 0.1 μM; 10 μM ATP; read-out: % Enzyme Activity (relative to DMSO controls)
T9 construct: purchased Reaction Biology Corp
Text: as §1

[10] = target: T10, panel of 371 human kinases (Homo sapiens, UniProt O75460); conditions: ERN1/IRE1; 0.1 μM; 10 μM ATP; read-out: % Enzyme Activity (relative to DMSO controls)
T10 construct: purchased Reaction Biology Corp
T10 sequence (O75460 19-977): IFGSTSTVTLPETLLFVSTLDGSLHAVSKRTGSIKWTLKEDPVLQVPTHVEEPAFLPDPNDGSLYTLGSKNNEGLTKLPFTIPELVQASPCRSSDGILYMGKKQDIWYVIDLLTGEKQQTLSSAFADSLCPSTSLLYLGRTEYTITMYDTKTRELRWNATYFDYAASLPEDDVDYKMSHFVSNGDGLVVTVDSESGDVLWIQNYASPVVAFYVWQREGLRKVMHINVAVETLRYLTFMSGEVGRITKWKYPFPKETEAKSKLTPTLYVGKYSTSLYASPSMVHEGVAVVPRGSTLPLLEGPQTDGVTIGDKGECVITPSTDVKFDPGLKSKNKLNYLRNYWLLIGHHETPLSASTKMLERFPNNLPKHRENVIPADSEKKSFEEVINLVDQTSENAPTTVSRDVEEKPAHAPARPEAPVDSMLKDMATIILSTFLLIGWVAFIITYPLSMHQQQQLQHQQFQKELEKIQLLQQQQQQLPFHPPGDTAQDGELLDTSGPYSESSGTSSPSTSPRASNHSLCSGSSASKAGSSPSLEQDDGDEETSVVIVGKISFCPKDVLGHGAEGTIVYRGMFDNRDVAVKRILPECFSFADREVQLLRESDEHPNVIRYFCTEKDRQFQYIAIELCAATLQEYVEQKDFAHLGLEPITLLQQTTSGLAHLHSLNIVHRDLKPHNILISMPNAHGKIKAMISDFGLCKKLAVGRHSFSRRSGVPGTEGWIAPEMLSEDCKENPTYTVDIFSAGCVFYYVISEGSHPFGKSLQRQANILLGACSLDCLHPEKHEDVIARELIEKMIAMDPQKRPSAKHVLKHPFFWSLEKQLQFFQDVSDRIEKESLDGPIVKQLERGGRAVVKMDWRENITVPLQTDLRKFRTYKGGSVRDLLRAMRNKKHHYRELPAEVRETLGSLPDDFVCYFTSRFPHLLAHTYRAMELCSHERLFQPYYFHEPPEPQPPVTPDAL
Text: as §1

[11] = target: T11, panel of 371 human kinases (Homo sapiens, UniProt Q56UN5); conditions: VSK4/MAP3K19; 0.1 μM; 10 μM ATP; read-out: % Enzyme Activity (relative to DMSO controls)
T11 construct: purchased Reaction Biology Corp
Text: as §1

[12] = target: T12, panel of 371 human kinases (Homo sapiens, UniProt O95382); conditions: MEKK6; 0.1 μM; 10 μM ATP; read-out: % Enzyme Activity (relative to DMSO controls)
T12 construct: purchased Reaction Biology Corp
Text: as §1

[13] = target: T13, panel of 371 human kinases (Homo sapiens, UniProt Q8IY84); conditions: NIM1; 0.1 μM; 10 μM ATP; read-out: % Enzyme Activity (relative to DMSO controls)
T13 construct: purchased Reaction Biology Corp
T13 sequence (Q8IY84 whole entry): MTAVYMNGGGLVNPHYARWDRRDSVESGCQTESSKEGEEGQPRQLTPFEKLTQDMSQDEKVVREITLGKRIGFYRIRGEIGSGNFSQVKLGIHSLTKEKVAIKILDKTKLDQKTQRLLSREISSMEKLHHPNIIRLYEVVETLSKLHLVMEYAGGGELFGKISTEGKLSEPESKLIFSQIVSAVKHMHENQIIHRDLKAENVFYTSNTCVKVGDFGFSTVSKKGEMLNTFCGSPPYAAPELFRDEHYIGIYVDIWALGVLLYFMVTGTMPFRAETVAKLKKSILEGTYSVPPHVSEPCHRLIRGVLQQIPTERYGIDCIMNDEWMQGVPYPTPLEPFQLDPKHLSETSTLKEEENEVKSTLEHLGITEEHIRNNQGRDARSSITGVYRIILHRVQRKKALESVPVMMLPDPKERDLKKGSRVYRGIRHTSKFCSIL
Text: as §1

[14] = target: T14, panel of 371 human kinases (Homo sapiens, UniProt Q04771); conditions: ALK2/ACVR1; 0.1 μM; 10 μM ATP; read-out: % Enzyme Activity (relative to DMSO controls)
T14 construct: purchased Reaction Biology Corp
Text: as §1

[15] = target: T15, panel of 371 human kinases (Homo sapiens, UniProt P22694); conditions: PKAcb; 0.1 μM; 10 μM ATP; read-out: % Enzyme Activity (relative to DMSO controls)
T15 construct: purchased Reaction Biology Corp
Text: as §1

[16] = target: T16, panel of 371 human kinases (Homo sapiens, UniProt Q86SG6); conditions: NEK8; 0.1 μM; 10 μM ATP; read-out: % Enzyme Activity (relative to DMSO controls)
T16 construct: purchased Reaction Biology Corp
Text: as §1

[17] = target: T17, panel of 371 human kinases (Homo sapiens, UniProt Q13554); conditions: CAMK2b; 0.1 μM; 10 μM ATP; read-out: % Enzyme Activity (relative to DMSO controls)
T17 construct: purchased Reaction Biology Corp
Text: as §1

[18] = target: T18, panel of 371 human kinases (Homo sapiens, UniProt P08581); conditions: c-MET; 0.1 μM; 10 μM ATP; read-out: % Enzyme Activity (relative to DMSO controls)
T18 construct: purchased Reaction Biology Corp
Text: as §1

[19] = target: T19, panel of 371 human kinases (Homo sapiens, UniProt P49674); conditions: CK1epsilon; 0.1 μM; 10 μM ATP; read-out: % Enzyme Activity (relative to DMSO controls)
T19 construct: purchased Reaction Biology Corp
T19 sequence (P49674 whole entry): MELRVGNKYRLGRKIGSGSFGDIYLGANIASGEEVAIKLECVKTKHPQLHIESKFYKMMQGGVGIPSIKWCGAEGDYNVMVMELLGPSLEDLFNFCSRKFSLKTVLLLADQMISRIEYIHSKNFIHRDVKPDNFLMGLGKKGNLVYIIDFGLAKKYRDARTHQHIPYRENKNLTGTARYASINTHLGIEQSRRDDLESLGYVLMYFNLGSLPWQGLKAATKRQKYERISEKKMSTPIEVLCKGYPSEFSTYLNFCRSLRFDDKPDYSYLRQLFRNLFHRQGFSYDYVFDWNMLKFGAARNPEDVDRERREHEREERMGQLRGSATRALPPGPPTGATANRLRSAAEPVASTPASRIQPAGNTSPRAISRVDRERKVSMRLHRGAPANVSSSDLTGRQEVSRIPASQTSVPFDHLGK
Text: as §1

[20] = target: T20, panel of 371 human kinases (Homo sapiens, UniProt O75716); conditions: STK16; 0.1 μM; 10 μM ATP; read-out: % Enzyme Activity (relative to DMSO controls)
T20 construct: purchased Reaction Biology Corp
T20 sequence (O75716 whole entry): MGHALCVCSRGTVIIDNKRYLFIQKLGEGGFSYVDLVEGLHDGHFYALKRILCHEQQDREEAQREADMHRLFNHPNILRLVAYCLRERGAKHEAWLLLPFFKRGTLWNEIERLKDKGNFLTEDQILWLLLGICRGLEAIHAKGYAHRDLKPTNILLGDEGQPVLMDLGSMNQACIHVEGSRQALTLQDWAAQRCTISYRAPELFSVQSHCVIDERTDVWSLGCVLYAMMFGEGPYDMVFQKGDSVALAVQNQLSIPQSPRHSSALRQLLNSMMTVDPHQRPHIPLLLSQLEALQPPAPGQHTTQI
Text: as §1

[21] = target: T21, panel of 371 human kinases (Homo sapiens, UniProt Q13555); conditions: CAMK2g; 0.1 μM; 10 μM ATP; read-out: % Enzyme Activity (relative to DMSO controls)
T21 construct: purchased Reaction Biology Corp
Text: as §1

[22] = target: T22, panel of 371 human kinases (Homo sapiens, UniProt P80192); conditions: MLK1/MAP3K9; 0.1 μM; 10 μM ATP; read-out: % Enzyme Activity (relative to DMSO controls)
T22 construct: purchased Reaction Biology Corp
Text: as §1

[23] = target: T23, panel of 371 human kinases (Homo sapiens, UniProt Q8IW41); conditions: MAPKAPK5/PRAK; 0.1 μM; 10 μM ATP; read-out: % Enzyme Activity (relative to DMSO controls)
T23 construct: purchased Reaction Biology Corp
Text: as §1

[24] = target: T24, panel of 371 human kinases (Homo sapiens, UniProt Q7L7X3); conditions: TAOK1; 0.1 μM; 10 μM ATP; read-out: % Enzyme Activity (relative to DMSO controls)
T24 construct: purchased Reaction Biology Corp
Text: as §1

Structure (SMILES)	remaining activity at 0.1 µM [1] [%]	remaining activity at 0.1 µM [2] [%]	remaining activity at 0.1 µM ([3]; CDK1/cyclin A) [%]	remaining activity at 0.1 µM ([3]; CDK1/cyclin B) [%]	remaining activity at 0.1 µM ([3]; CDK1/cyclin E) [%]	remaining activity at 0.1 µM [4] [%]	remaining activity at 0.1 µM [5] [%]	remaining activity at 0.1 µM [6] [%]	remaining activity at 0.1 µM [7] [%]	remaining activity at 0.1 µM [8] [%]	remaining activity at 0.1 µM [9] [%]	remaining activity at 0.1 µM [10] [%]	remaining activity at 0.1 µM [11] [%]	remaining activity at 0.1 µM [12] [%]	remaining activity at 0.1 µM [13] [%]	remaining activity at 0.1 µM [14] [%]	remaining activity at 0.1 µM [15] [%]	remaining activity at 0.1 µM [16] [%]	remaining activity at 0.1 µM [17] [%]	remaining activity at 0.1 µM [18] [%]	other results
OCCN1CCN(Cc2ccc(-c3cnc4[nH]cc(-c5cccc(Cl)c5)c4c3)cc2)CC1 [Compound 12k, 2-(4-(4-(3-(3-Chlorophenyl)-1H-pyrrolo[2,3-b]pyridin-5-yl)benzyl)piperazin-1-yl)ethan-1-ol]	99.9	93.3	79.9	84.9	91.1	108	103	77.3	55.6	104	96.2	98.9	107	95	105	126	92.6	97.9	92.2	88.2	remaining activity at 0.1 µM [19]: 103%; remaining activity at 0.1 µM [20]: 109%; remaining activity at 0.1 µM [21]: 110%; remaining activity at 0.1 µM [22]: 73.7%; remaining activity at 0.1 µM [23]: 84.4%; remaining activity at 0.1 µM [24]: 59.8%
CN1CCN(Cc2ccc(-c3cnc4[nH]cc(-c5ccc6[nH]ccc6c5)c4c3)cc2)CC1 [Compound 1, 3-(1H-Indol-5-yl)-5-(4-((4-methylpiperazin-1-yl)methyl)phenyl)-1H-pyrrolo[2,3-b]pyridine, reference compound]	106	98.2	95.1	96.5	98.7	99.9	104	90.7	71.1	103	103	107	101	91.6	106	121	106	99.1	95.5	87.8	remaining activity at 0.1 µM [19]: 117%; remaining activity at 0.1 µM [20]: 100%; remaining activity at 0.1 µM [21]: 110%; remaining activity at 0.1 µM [22]: 48.2%; remaining activity at 0.1 µM [23]: 78.5%; remaining activity at 0.1 µM [24]: 78.3%
